According to US7537765B2, “Inhibition of HIV-1 replication by disruption of the processing of the viral capsid-spacer peptide 1 protein” (priority 2003, dated 2009):

Key:
[1] = system: DSB-resistant HIV-1 viruses; assay: Western blot of CA-SP1 cleavage in drug-resistant viruses; format: cell-based; conditions: drug-resistant viruses in the presence of DSB
Description: To determine if the resistant viruses were able to escape the CA-SP1 cleavage defect caused by DSB in wild-type virus, stocks of each virus grown in either the presence or absence of drug were analyzed by Western blot. Virus was pelleted through a 20% sucrose cushion from filtered culture supernatants that were collected 60 hr post-infection and 18 hr after the cells had been washed and fresh drug added. The viruses were lysed, and the amount of each virus was normalized by quantitating p24 levels in each sample.

[2] = system: HIV; conditions: chronically-infected cells, Kanamoto et al.; cited from earlier work
[3] = system: HIV-1IIIB; assay: Virus production and Gag processing (western blot) in chronically infected H9/HIV-1IIIB cells; format: cell-based
Description: (§1) FIG. 2. […] Gag proteins were visualized using HIV-Ig (HIV-1) or monkey anti-SIVmac251 serum (HIV-2 and SIV; NIH AIDS Research and Reference Reagent Program).
(§2) In order to better define DSB's mechanism of action, a detailed examination was undertaken of the virus produced from HIV-1-infected cell lines treated with DSB. Briefly, H9 cells chronically infected with the HIV-1IIIB isolate were treated with DSB at 1 μg/mL for a period of 48 hrs. Indinavir was used as a control. At the 48 hr time-point, spent media was removed and fresh media containing compound was added. At 24, 48 and 72 hrs post fresh compound addition, both cells and supernatant were recovered for analysis. The level of virus in the culture supernatant was determined and western blots were used to characterize viral protein production in both cell-associated and cell-free virus. […] This defect took the form of an additional band in the western blots corresponding to p25 (FIG. 2). This p25 band results from the incomplete processing of the capsid CA-SP1 precursor. […] As discussed above, mutations at the p25 to p24 cleavage site that prevent processing are associated with defects in viral maturation and infectivity (Wiegers K. et al., J. Virol. 72:2846-54 (1998)).

[4] = system: NL4-3 A366V/G357S double mutant; assay: Virus replication assay of re-engineered NL4-3 mutants in Jurkat T cells (reverse transcriptase activity); format: cell-based, HIV-1
Description: In order to more extensively map the viral genetic determinants for DSB resistance, additional experiments were performed to select for viruses in vitro that are drug resistant. Multiple parallel cultures of Jurkat T cells (5×10^5 each) were transfected with the proviral DNA clone pNL4-3 in the presence or absence of 10-50 ng/ml DSB. The cells were passaged every two days, and fresh drug was added at each passage. Virus replication was monitored by measuring reverse transcriptase activity in culture supernatants. Virus was isolated from culture supernatants harvested at selected timepoints, and genomic DNA was amplified by RT-PCR using primers that spanned the coding region between the N-terminus of CA and the N-terminus of RT. The amplified product was then sequenced using the same set of primers.
In one experiment, an A366V mutation was identified in the SP1 region of NL4-3 virus cultured in the presence of DSB (note: numbering is relative to the Gag polyprotein). Upon further passaging, a double mutant was identified that contained a G357S mutation in CA as well as the A366V mutation in SP1. The A366V mutation was identified previously in experiments selecting for resistant variants of the RF isolate. […] Since serine is present at this position in isolates (such as RF) that are sensitive to DSB, the CA G357S mutation alone is not sufficient to confer resistance to DSB. […]

[5] = system: SIVmac251; assay: Gag processing (western blot) in chronically infected H9/SIVmac251 cells; format: cell-based, SIV
Description: as §1, §2

For `C=C(C)[C@@H]1CC[C@]2(C(=O)O)CC[C@]3(C)[C@H](CC[C@@H]4[C@@]5(C)CC[C@H](OC(=O)CC(C)(C)C(=O)O)C(C)(C)[C@@H]5CC[C@]43C)[C@@H]12` [DSB, 3-O-(3′,3′-dimethylsuccinyl)betulinic acid], the “CA-SP1 product in virus (Western blot)” value [1] is given as “did not contain the CA-SP1 product”, the release of virus [2] is given as “inhibits release of virus from chronically-infected cells” and the “Gag processing (p25 band in western blot)” value ([3]; 1 μg/mL, cell-associated and cell-free virus) is given as “defect in Gag processing”. The “amount of virus produced” value ([3]; 1 μg/mL, chronically infected H9 cells) was “did not cause a significant reduction in the amount of virus produced”, the “effect on virus release” value ([3]; a variety of experimental systems) was “does not have a significant effect on virus release” and the virus replication [4] was “replicated efficiently in the absence or presence of DSB”. For the same molecule, the antiviral activity ([5]; SIV) was “lack of antiviral activity” and the Gag processing ([5]; SIV chronically infected cell line, 1 μg/mL) was “normal Gag processing”.
